Key:
[1] = biological target: Histamine H3 receptor (Homo sapiens, UniProt Q9Y5N1); assay: Displacement of [3H]UR-P129 from human histamine H3 receptor expressed in sf9 insect cell membranes co-expressing Galphai2/Gbeta1gamma2 incubated for 60 mins by microbeta scintillation counting method; set-up: species or system Membrane
[2] = biological target: T1, Histamine H2 receptor (Homo sapiens, UniProt P25021); assay: Agonist activity at human histamine receptor expressed in sf9 insect cell membranes co-exprssing GsalphaS incubated for 90 mins [35S]GTPgammaS binding based microbeta scintillation counting analysis; type: functional, Membrane
[3] = biological target: Histamine H4 receptor (Homo sapiens, UniProt Q9H3N8)
[4] = biological target: T1, Histamine H2 receptor; assay: Displacement of [3H]UR-DE257 from human histamine H2 receptor expressed in sf9 insect cell membranes co-expressing GSalphaS incubated for 60 mins by microbeta scintillation counting method; set-up: species or system Membrane
[5] = biological target: T1, Histamine H2 receptor; assay: Agonist activity at human histamine H2 receptor expressed in HEK293T cells co-expressing ELucC by beta arrestin2 recruitment assay; type: functional, cell-based
[6] = biological target: Histamine H1 receptor (Homo sapiens, UniProt P35367); assay: Displacement of [3H]mepyramine from human histamine H1 receptor expressed in sf9 insect cell membranes co-expressing RGS4 incubated for 60 mins by microbeta scintillation counting method; set-up: species or system Membrane
[7] = biological target: Histamine H2 receptor (Cavia porcellus) (UniProt P47747); assay: Agonist activity at guinea pig right atrium histamine H2 receptor assessed as intrinsic activity incubated for 30 mins in presence of cimetidine relative to histamine; type: functional, tissue-based; settings: Right cardiac atrium, filed as agonist
[8] = biological target: Histamine H2 receptor (Cavia porcellus, UniProt P47747); assay: Agonist activity at guinea pig right atrium histamine H2 receptor assessed as increase in heart rate incubated for 30 mins in presence of cimetidine; type: functional, tissue-based, Right cardiac atrium
[9] = biological target: T1, Histamine H2 receptor; assay: Agonist activity at human histamine H2 receptor expressed in sf9 insect cell membranes co-exprssing GsalphaS assessed as intrinsic activity at >=30 uM incubated for 90 mins [35S]GTPgammaS binding based microbeta scintillation counting analysis relative to histamine; type: functional; settings: Membrane, filed as agonist, dose microM >=30, time 90.0 min
[10] = biological target: T2, D(3) dopamine receptor (Homo sapiens, UniProt P35462); assay: Agonist activity at […] expressed in HEK293T cells co-expressing ELucC by beta arrestin2 recruitment assay; type: functional, cell-based
[11] = biological target: T3, D(2) dopamine receptor (Homo sapiens, UniProt P14416); type: functional, cell-based, HEK293T
[12] = biological target: T2, D(3) dopamine receptor; assay: Displacement of [3H]N-methylspiperone from human D3 receptor expressed in HEK293T cells co-expressing CRE-Luc incubated for 60 mins by microbeta scintillation counting method; type: cell-based
[13] = biological target: T3, D(2) dopamine receptor; assay: Displacement of [3H]N-methylspiperone from human D2L receptor expressed in HEK293T cells co-expressing CRE-Luc incubated for 60 mins by microbeta scintillation counting method; type: cell-based

T2 sequence (P35462 whole entry): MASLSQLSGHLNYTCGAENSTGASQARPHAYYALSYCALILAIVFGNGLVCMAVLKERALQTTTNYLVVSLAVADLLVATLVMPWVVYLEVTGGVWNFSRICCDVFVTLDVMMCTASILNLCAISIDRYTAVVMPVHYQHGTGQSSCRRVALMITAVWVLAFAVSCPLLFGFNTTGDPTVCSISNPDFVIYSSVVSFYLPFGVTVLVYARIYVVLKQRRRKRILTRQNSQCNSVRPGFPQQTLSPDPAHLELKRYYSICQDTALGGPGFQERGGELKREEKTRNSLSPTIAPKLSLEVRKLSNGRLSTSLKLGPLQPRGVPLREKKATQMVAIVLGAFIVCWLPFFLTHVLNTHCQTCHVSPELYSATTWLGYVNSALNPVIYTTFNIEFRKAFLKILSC
T3 sequence (P14416 whole entry): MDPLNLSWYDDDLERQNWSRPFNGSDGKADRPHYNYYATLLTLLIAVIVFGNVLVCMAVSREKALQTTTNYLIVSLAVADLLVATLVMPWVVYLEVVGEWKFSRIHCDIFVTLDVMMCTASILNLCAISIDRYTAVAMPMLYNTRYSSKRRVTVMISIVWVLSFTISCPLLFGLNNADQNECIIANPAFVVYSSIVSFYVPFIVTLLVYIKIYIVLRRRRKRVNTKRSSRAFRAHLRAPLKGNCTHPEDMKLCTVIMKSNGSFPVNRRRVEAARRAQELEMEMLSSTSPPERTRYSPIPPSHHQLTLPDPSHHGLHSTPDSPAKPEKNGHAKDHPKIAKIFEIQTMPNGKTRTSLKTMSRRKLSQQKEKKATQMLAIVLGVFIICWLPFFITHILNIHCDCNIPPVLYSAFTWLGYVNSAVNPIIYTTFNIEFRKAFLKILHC
T1 sequence (P25021 whole entry): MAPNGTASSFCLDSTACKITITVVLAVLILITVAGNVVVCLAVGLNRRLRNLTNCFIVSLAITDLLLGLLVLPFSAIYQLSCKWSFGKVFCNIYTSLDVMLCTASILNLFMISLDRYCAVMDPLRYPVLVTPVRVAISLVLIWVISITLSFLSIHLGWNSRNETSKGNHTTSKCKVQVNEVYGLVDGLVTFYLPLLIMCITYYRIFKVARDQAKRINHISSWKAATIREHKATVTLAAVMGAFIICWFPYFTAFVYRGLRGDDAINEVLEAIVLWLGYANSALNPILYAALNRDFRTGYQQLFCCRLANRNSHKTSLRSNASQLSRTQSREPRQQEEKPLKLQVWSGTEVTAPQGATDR
Histamine H2 receptor (Cavia porcellus), sequence (P47747 whole entry): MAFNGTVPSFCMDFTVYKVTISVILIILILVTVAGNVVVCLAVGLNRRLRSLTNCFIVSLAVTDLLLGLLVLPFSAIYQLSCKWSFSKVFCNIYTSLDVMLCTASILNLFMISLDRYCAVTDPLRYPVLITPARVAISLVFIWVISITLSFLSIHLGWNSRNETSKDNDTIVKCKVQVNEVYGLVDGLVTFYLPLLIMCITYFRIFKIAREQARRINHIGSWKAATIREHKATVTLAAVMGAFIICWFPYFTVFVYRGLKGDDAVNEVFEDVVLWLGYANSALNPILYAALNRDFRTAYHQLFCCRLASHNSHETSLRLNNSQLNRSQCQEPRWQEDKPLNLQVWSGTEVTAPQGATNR
Histamine H2 receptor (Cavia porcellus, UniProt P47747), sequence (P47747 whole entry): as above
Histamine H3 receptor, sequence (Q9Y5N1 whole entry): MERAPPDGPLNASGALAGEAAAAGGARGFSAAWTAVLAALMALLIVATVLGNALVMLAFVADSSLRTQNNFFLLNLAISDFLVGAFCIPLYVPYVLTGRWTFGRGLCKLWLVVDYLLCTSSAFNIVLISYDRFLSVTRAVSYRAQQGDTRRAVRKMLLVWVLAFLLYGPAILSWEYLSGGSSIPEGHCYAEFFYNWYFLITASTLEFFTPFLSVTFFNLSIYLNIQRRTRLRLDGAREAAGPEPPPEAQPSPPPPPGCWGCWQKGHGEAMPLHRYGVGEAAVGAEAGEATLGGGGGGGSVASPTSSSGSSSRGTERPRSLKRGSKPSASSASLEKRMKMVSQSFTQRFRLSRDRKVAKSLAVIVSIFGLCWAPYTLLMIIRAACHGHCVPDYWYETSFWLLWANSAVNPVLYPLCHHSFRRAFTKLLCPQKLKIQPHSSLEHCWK
Histamine H1 receptor, sequence (P35367 whole entry): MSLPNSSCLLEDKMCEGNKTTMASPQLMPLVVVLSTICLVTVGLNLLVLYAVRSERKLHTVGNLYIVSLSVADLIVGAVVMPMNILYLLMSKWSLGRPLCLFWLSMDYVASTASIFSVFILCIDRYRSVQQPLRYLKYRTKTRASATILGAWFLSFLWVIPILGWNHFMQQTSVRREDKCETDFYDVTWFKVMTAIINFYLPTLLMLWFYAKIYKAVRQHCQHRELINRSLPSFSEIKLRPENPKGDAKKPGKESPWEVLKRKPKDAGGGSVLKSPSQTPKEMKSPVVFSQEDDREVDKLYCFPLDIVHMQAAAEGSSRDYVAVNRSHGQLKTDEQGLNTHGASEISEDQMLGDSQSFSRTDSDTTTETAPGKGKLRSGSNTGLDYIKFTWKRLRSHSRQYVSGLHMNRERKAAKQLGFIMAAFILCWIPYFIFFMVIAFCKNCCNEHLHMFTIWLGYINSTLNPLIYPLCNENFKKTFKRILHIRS

| SMILES | Ki [1] | EC50 [2] | Ki [3] | Ki [4] | EC50 [5] | Ki [6] | Intrinsic activity [7] | Intrinsic activity [9] | EC50 [10] | EC50 [11] | Ki [12] | Ki [13] | EC50 [8] |
| --- | --- | --- | --- | --- | --- | --- | --- | --- | --- | --- | --- | --- | --- |
| Cc1ccc(CC(C)CNC(=O)/N=C(\N)NCCCc2sc(N)nc2C)cc1 (stereo not given) | 3240 nM | 60.3 nM | 3630 nM | 72.4 nM | 132 nM | 1660 nM |  |  |  |  |  |  |  |
| Cc1ccc(C(C)NC(=O)/N=C(\N)NCCCc2sc(N)nc2C)cc1 (stereo not given) | 26300 nM |  | 11200 nM | 30.9 nM |  | 5130 nM | 0.85 |  |  |  |  |  | 22.4 nM |
| CCCCCCNC(=O)/N=C(\N)NC1CCc2nc(N)sc2C1 (stereo not given) | 1510 nM | 148 nM | 16600 nM | 1120 nM |  | 1950 nM |  | 0.16 |  |  | 1260 nM | 1260 nM |  |
| Cc1nc(N)sc1CCCN/C(N)=N/C(=O)NC1CCCCC1 |  | 148 nM | 31600 nM | 170 nM | 389 nM | 24500 nM |  |  |  |  |  |  |  |
| Cc1nc(N)sc1CCCN/C(N)=N/C(=S)N[C@@H](C)c1ccccc1 | 81300 nM |  | 55000 nM | 339 nM |  | 77600 nM | 0.65 |  |  |  |  |  | 224 nM |
| CCCN[C@@H]1CCc2nc(N)sc2C1 [DEXPRAMIPEXOLE] |  | 8510 nM |  | 13800 nM | 39800 nM |  |  |  |  |  |  |  |  |
| Cc1nc(N)sc1CCCN/C(N)=N/C(=O)NCC(C)CC1CCCCC1 (stereo not given) | 7410 nM | 17.4 nM | 3720 nM | 70.8 nM | 302 nM | 3800 nM |  |  | 302 nM |  | 132 nM |  |  |
| Cc1nc(N)sc1CCCN/C(N)=N/C(=O)NC(C)c1ccc(Cl)cc1 (stereo not given) | 17800 nM |  | 8510 nM | 46.8 nM |  | 4470 nM | 0.93 |  |  |  |  |  | 24.5 nM |
| CCCCCNC(=O)/N=C(\N)NCCCc1sc(N)nc1C | 10500 nM |  | 4270 nM | 4.47 nM | 178 nM | 10700 nM |  |  |  | 1050 nM |  | 447 nM | 5.75 nM |
| COc1ccc(C(C)NC(=O)/N=C(\N)NCCCc2sc(N)nc2C)cc1 (stereo not given) | 33100 nM |  | 20000 nM | 37.2 nM |  | 5890 nM | 0.91 |  |  |  |  |  | 38 nM |
| Cc1nc(N)sc1CCCN/C(N)=N/C(=S)NC[C@H](C)c1ccccc1 | 69200 nM |  | 44700 nM | 1150 nM |  | 63100 nM | 0.44 |  |  |  |  |  | 490 nM |
| Cc1nc(N)sc1CCCN/C(N)=N/C(=O)NCc1ccco1 | 74100 nM |  | 75900 nM | 10.5 nM |  | 24000 nM | 0.58 |  |  |  |  |  | 11.7 nM |
| Cc1nc(N)sc1CCCN/C(N)=N/C(=O)NC(C)c1ccc(OC(F)(F)F)cc1 (stereo not given) | 14500 nM |  | 8130 nM | 126 nM |  | 21900 nM | 0.61 |  |  |  |  |  | 724 nM |
| CCCNC(=O)/N=C(\N)NCCCc1sc(N)nc1C | 44700 nM | 178 nM | 87100 nM | 105 nM | 170 nM | 28800 nM |  | 0.79 |  |  |  |  |  |
| Cc1nc(N)sc1CCCN/C(N)=N/C(=O)NC(C)c1ccco1 (stereo not given) | 43700 nM |  | 45700 nM | 31.6 nM | 234 nM | 45700 nM | 1 |  | 102 nM | 1070 nM | 17.4 nM | 1700 nM | 9.77 nM |
| Cc1nc(N)sc1CCCN/C(N)=N/C(=S)NC[C@@H](C)c1ccccc1 | 83200 nM |  | 32400 nM | 427 nM |  | 52500 nM | 0.66 |  |  |  |  |  | 148 nM |
| Cc1nc(N)sc1CCCN/C(N)=N/C(=O)NC(C)c1cccs1 (stereo not given) | 58900 nM |  | 30200 nM | 63.1 nM |  | 25700 nM | 0.88 |  |  |  |  |  | 10 nM |
| Cc1nc(N)sc1CCCN/C(N)=N/C(=O)NC(C)c1ccc(Br)cc1 (stereo not given) | 12900 nM |  | 8130 nM | 30.2 nM |  | 2880 nM | 0.87 |  |  |  |  |  | 55 nM |
| Cc1nc(N)sc1CCCN/C(N)=N/C(=S)N[C@H](C)c1ccccc1 | 64600 nM |  | 26900 nM | 115 nM | 372 nM | 110000 nM | 0.87 |  | 166 nM | 1510 nM | 60.3 nM | 1170 nM | 89.1 nM |
| Cc1nc(N)sc1CCCN/C(N)=N/C(=O)NC(C)c1cccc(F)c1 (stereo not given) | 38900 nM |  | 13200 nM | 2.04 nM | 64.6 nM | 7760 nM |  |  | 72.4 nM |  | 8.71 nM |  | 26.3 nM |
| Cc1nc(N)sc1CCCN/C(N)=N/C(=O)NC(C)c1ccc(F)cc1 (stereo not given) | 25700 nM |  | 13800 nM | 31.6 nM |  | 10200 nM | 0.92 |  |  |  |  |  | 23.4 nM |

More lines, main results first:

| Ki [1] | EC50 [2] | Ki [3] | Ki [4] | EC50 [5] | Ki [6] | Intrinsic activity [7] | Intrinsic activity [9] | EC50 [10] | EC50 [11] | Ki [12] | Ki [13] | SMILES | EC50 [8] |
| --- | --- | --- | --- | --- | --- | --- | --- | --- | --- | --- | --- | --- | --- |
| 19500 nM | 28.8 nM | 19100 nM | 69.2 nM | 100 nM | 6170 nM |  | 0.91 | 33.9 nM | 1660 nM | 45.7 nM | 603 nM | Cc1nc(N)sc1CCCN/C(N)=N/C(=O)NCc1ccccc1 |  |
| 30900 nM |  | 12900 nM | 28.8 nM |  | 17000 nM | 0.93 |  |  |  |  |  | Cc1nc(N)sc1CCCN/C(N)=N/C(=O)NC(C)c1ccccc1F (stereo not given) | 12.3 nM |
| 9120 nM |  | 6310 nM |  |  | 15800 nM |  |  |  |  |  |  | Cc1nc(N)sc1CCCN/C(N)=N/C(=O)NC(c1ccccc1)c1ccccc1 | 39.8 nM |
| 17000 nM |  | 12000 nM | 100 nM |  | 8710 nM | 0.99 |  |  |  |  |  | Cc1nc(N)sc1CCCN/C(N)=N/C(=O)NC[C@H](C)c1ccccc1 | 25.7 nM |
|  | 525 nM | 22400 nM | 3160 nM | 3390 nM |  |  | 0.59 |  |  |  |  | Cc1nc(N)sc1CCCN/C(N)=N/C(=O)Nc1ccccc1 |  |
| 2290 nM |  | 776 nM | 60.3 nM | 2510 nM | 7080 nM |  |  |  |  |  |  | Cc1nc(N)sc1CCCN/C(N)=N/C(=O)NCC(C)CCCc1ccccc1 (stereo not given) |  |
| 26900 nM |  | 13500 nM | 102 nM |  | 9550 nM | 0.98 |  |  |  |  |  | Cc1nc(N)sc1CCCN/C(N)=N/C(=O)NC[C@@H](C)c1ccccc1 | 12.9 nM |
|  | 44.7 nM | 14800 nM | 158 nM | 166 nM |  |  | 0.72 |  |  |  |  | Cc1nc(N)sc1CCCN/C(N)=N/C(=O)NCCc1ccccc1 |  |
|  |  | 34700 nM |  |  |  |  |  |  |  |  |  | N/C(=N\C(=O)NCc1ccccc1)Nc1cccc(-c2csc(N)n2)c1 |  |
| 31600 nM |  | 17400 nM | 229 nM |  | 53700 nM | 0.85 |  |  |  |  |  | Cc1nc(N)sc1CCCN/C(N)=N/C(=O)NC(c1ccccc1)C(F)(F)F (stereo not given) | 47.9 nM |
| 43700 nM |  | 23400 nM | 603 nM |  | 46800 nM | 0.67 |  |  |  |  |  | Cc1nc(N)sc1CCCN/C(N)=N/C(=S)NC(c1ccccc1)c1ccccc1 | 66.1 nM |
| 10000 nM |  | 4900 nM | 87.1 nM |  | 5250 nM | 0.76 |  |  |  |  |  | Cc1nc(N)sc1CCCN/C(N)=N/C(=O)NCC(c1ccccc1)c1ccccc1 | 174 nM |
|  |  | 30200 nM |  |  |  |  |  |  |  |  |  | N/C(=N\C(=O)NCCc1ccccc1)Nc1cccc(-c2csc(N)n2)c1 |  |
| 16600 nM | 28.8 nM | 6760 nM | 77.6 nM | 269 nM | 7940 nM |  |  | 40.7 nM |  | 64.6 nM |  | CCC(CNC(=O)/N=C(\N)NCCCc1sc(N)nc1C)c1ccccc1 (stereo not given) |  |
| 3310 nM | 214 nM | 30200 nM | 513 nM | 4370 nM | 1200 nM |  | 0.53 |  |  | 5010 nM | 550 nM | N/C(=N\C(=O)NCc1ccccc1)NC1CCc2nc(N)sc2C1 (stereo not given) |  |
| 33100 nM |  | 17800 nM | 51.3 nM |  | 21400 nM |  |  | 229 nM |  | 24.5 nM |  | Cc1nc(N)sc1CCCN/C(N)=N/C(=O)N[C@@H](C)c1ccccc1 | 23.4 nM |
| 21900 nM |  | 11200 nM | 63.1 nM |  | 12600 nM | 0.93 |  |  |  |  |  | CCC(NC(=O)/N=C(\N)NCCCc1sc(N)nc1C)c1ccccc1 (stereo not given) | 10.7 nM |
| 19100 nM |  | 7940 nM | 35.5 nM |  | 24500 nM | 1.04 |  |  |  |  |  | Cc1nc(N)sc1CCCN/C(N)=N/C(=O)NC(c1ccccc1)C(C)C (stereo not given) | 34.7 nM |

Reference: ChEMBL document CHEMBL4813951 (Eur J Med Chem, 2021)
